According to US11964962B2, “Substituted pyridazinone compound and use thereof” (SHANDONG FIRST MEDICAL UNIVERSITY & SHANDONG ACADEMY OF …, priority 2020, dated 2024):

Legend:
[1] = Metabolic stability in human liver microsomes; type: in vitro ADME; conditions: pH 7.4, 37° C.; for half-life: read-out: T ½
Experimental: Microsomal incubations were performed in 0.05 M Tris-KCl buffer (pH 7.4) in the presence of test compound dissolved in DMSO at a series of concentrations, rat liver microsomes (RLMs) (S9 or human liver microsomes (HLMs)), rat liver cytoplasms (RLCs) (human liver cytoplasms (HLCs, 0.5 mg/mL)), 1.3 mM β-nicotinamide adenine dinucleotide phosphate sodium salt (NADP), 3.3 mM D-glucose-6-phosphate disodium salt (G-6-P), 0.4 units/mL glucose-6-phosphate dehydrogenase (G-6-PDH, type XII), and 3.3 mM MgCl2. The volume of the organic solvents was not more than 1% by volume with respect to the reaction system. After a preincubation of the mixture in a rotating mixer at 37° C. and 850 rpm for 3 min, hepatic microsomes were added to initiate incubation reactions, which were conducted at 37° C. for 30 min, 60 min, or 90 min, respectively. After the incubations were complete, the reactions were terminated by addition of an equal volume of ice cold acetonitrile, followed by addition of 20 μL of a 1 mg/mL solution of geniposide (internal standard) in methanol and then by centrifugation at 10,000 rpm for 10 min to precipitate protein. The […] was blown dry with nitrogen at 40° C. and then dissolved in 100 μL of methanol, which was used as mobile phase. 10 μL of the solution was sampled and analyzed by HPLC.

THRα = target: T1, THRα (Homo sapiens, UniProt P10827); experiment: THRα agonist activity, fluorescence ratio 665 nm/615 nm with EE-RxRα and biotin-GRIP; type: biochemical; conditions: incubated overnight at 4° C.
T1 construct: GST
T1 sequence (P10827 1-410 isoform P10827-2): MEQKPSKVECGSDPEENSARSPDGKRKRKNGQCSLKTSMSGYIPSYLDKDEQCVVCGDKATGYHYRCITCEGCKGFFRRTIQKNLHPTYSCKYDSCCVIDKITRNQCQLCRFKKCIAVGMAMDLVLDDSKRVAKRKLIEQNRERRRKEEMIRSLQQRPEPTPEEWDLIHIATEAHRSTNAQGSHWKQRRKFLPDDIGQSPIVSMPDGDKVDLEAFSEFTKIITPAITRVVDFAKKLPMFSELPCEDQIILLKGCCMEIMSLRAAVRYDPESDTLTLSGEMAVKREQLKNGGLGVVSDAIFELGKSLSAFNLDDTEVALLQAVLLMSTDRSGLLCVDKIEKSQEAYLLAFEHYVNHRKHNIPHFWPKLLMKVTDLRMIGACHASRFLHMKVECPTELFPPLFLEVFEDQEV
T1 sequence (P19793 225-462 partner limits assumed): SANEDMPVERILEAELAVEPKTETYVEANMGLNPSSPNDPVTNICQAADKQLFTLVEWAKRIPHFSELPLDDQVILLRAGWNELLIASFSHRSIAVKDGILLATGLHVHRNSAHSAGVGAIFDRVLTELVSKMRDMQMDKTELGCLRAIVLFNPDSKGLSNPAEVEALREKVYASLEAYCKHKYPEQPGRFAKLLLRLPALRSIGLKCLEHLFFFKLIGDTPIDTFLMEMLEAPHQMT
T1 sequence (Q15596 679-703 partner limits assumed): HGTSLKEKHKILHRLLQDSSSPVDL
Experimental: (§1) Test compound was dissolved and serially diluted in dimethyl sulfoxide (DMSO) with a final compound concentration of 60 mM. […] Buffer 1 was employed again to prepare EE-RxRα at the same concentrations as those of THRα and THRβ, respectively. Buffer 1+5% DMSO was employed to prepare biotin-GRIP (THRα: […], THRβ: 100 nM). Buffer 2 (50 mM Tris, pH 7.4, 100 mM NaCl, and 0.2 mg/mL BSA) was employed to prepare a mixed solution of 2×Eu-anti-GST and 2×streptavidin-d2. 5 μL of the THRα (THRβ) solution+5 μL of EE-RxRα+2.5 μL of the DMSO solution of test compound+2.5 μL of biotin-GRIP+5 μL of the mixed solution of 2×Eu-anti-GST and 2×streptavidin-d2 was employed as the reaction system, and incubated overnight at 4° C.

L929 mouse fibroblasts = experiment: Cytotoxicity in normal cell line L929 (CCK-8 proliferation assay); type: cell-based; conditions: 48 h treatment, CCK-8, absorbance 450 nm, read-out: IC50 for proliferation of L929 cell lines
Experimental: Concentration of L929 mouse fibroblasts was adjusted to 4×10^5 cells/mL. The cells were seeded in a 96 well plate with […] per well. Wells not supplied with the cells (blank group) were provided. The cells were cultivated on the plate and were allowed to adhere overnight. Then, cell culture supernatants were collected, and 200 μL of test compound at various concentrations were added to the corresponding cell culture supernatants. Control and compound-treated cell culture supernatants were included in each experiment with triplicate wells for each experimental group, and were cultivated for a further 48 h. Then, the resulting cell culture supernatants were again collected, and fresh medium supplemented with 10% CCK-8 solution was added thereto. Incubation for an additional 3 h was carried out. Thereafter, the absorbance of the medium was measured at 450 nm wavelength, and the inhibitory rate of cell proliferation by test compound was calculated according to the equation below: R (%)=1−(Aexperiment−Ablank)/(Acontrol−Ablank)

THRβ = target: T2, THRβ (Homo sapiens, UniProt P10828); experiment: THRβ agonist activity, fluorescence ratio 665 nm/615 nm with EE-RxRα and biotin-GRIP; type: biochemical; conditions: incubated overnight at 4° C.
T2 construct: GST
T2 sequence (P10828 1-461): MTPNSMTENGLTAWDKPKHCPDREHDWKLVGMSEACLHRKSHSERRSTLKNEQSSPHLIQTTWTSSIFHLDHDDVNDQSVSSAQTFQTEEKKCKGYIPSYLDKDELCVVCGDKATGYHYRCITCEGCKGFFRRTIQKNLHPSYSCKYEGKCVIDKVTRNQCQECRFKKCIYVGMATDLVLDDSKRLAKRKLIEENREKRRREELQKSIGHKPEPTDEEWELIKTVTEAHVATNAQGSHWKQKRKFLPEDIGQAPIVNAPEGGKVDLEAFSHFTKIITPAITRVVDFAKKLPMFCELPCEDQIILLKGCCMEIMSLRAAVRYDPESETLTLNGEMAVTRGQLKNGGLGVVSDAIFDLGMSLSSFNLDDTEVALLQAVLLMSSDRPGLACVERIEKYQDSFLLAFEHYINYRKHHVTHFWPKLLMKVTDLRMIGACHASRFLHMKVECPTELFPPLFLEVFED
T2 sequence (P19793 225-462 partner limits assumed): T1 sequence (P19793 225-462 partner limits assumed)
T2 sequence (Q15596 679-703 partner limits assumed): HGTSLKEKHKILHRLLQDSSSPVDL
Experimental: as §1

CC(C)c1cc(Oc2c(Cl)cc(-n3nc(C#N)c(=O)[nH]c3=O)cc2Cl)n[nH]c1=O [MGL-3196, Resmetirom, reference compound]
microsomal CLint [1]: 2.21 µL/min/mg | half-life [1]: < 6.67 h

N#Cc1nn(-c2cc(Cl)c(Oc3cc(CC4CCCC4)c(=O)[nH]n3)c(Cl)c2)c(=O)[nH]c1=O [Compound 6]
EC50 (THRα): 2.75 µM | microsomal CLint [1]: 0.18 µL/min/mg | half-life [1]: 16.3 h | IC50 (L929 mouse fibroblasts): > 50 µM | EC50 (THRβ): 0.0949 µM

N#Cc1nn(-c2ccc(Oc3cc(CC4CCCC4)c(=O)[nH]n3)c(F)c2)c(=O)[nH]c1=O [Compound 7]
EC50 (THRα): 10 µM | microsomal CLint [1]: 0.12 µL/min/mg | half-life [1]: 18.3 h | IC50 (L929 mouse fibroblasts): > 50 µM | EC50 (THRβ): 0.013 µM

CC(C)c1cc(Oc2c(Cl)cc(-c3nn[nH]n3)cc2Cl)n[nH]c1=O [Compound 49, 6-(2,6-dichloro-4-(2H-tetrazol-5-yl)phenoxy)-4-isopropylpyridazin-3(2H)-one]
EC50 (THRα): 3.32 µM | IC50 (L929 mouse fibroblasts): > 50 µM | EC50 (THRβ): 0.254 µM

CC(C)c1cc(Oc2ccc(-n3nc(C#N)c(=O)[nH]c3=O)c(Cl)c2)n[nH]c1=O [Compound 30]
EC50 (THRα): > 60 µM | IC50 (L929 mouse fibroblasts): > 50 µM | EC50 (THRβ): 17.3 µM

N#Cc1nn(-c2cc(Cl)c(Oc3cc(CC4CCCC4)c(=O)[nH]n3)cc2Cl)c(=O)[nH]c1=O [Compound 11]
EC50 (THRα): 2.14 µM | IC50 (L929 mouse fibroblasts): > 50 µM | EC50 (THRβ): 0.372 µM

Cc1c(Oc2ccc(-n3nc(C#N)c(=O)[nH]c3=O)cc2Cl)n[nH]c(=O)c1C [Compound 24]
EC50 (THRα): 3.29 µM | microsomal CLint [1]: 0.452 µL/min/mg | half-life [1]: 14.5 h | IC50 (L929 mouse fibroblasts): > 50 µM | EC50 (THRβ): 0.0101 µM

N#Cc1cn(-c2cc(Cl)c(Oc3cc(C4CCC4)c(=O)[nH]n3)c(Cl)c2)c(=O)[nH]c1=O [Compound 42, 1-(3,5-dichloro-4-((5-cyclobutyl-6-oxo-1,6-dihydropyridazin-3-yl)oxy)phenyl)-2,4-dioxo-1,2,3,4-tetrahydropyrimidine-5-carbonitrile]
EC50 (THRα): 1.81 µM | IC50 (L929 mouse fibroblasts): > 50 µM | EC50 (THRβ): 0.0257 µM

CC(C)(C)c1cc(Oc2ccc(-n3nc(C#N)c(=O)[nH]c3=O)cc2Cl)n[nH]c1=O [Compound 3]
EC50 (THRα): 1.4 µM | IC50 (L929 mouse fibroblasts): > 50 µM | EC50 (THRβ): 0.81 µM

COc1cc(-n2nc(C#N)c(=O)[nH]c2=O)ccc1Oc1cc(CC(C)(C)C)c(=O)[nH]n1 [Compound 21]
EC50 (THRα): 19.9 µM | IC50 (L929 mouse fibroblasts): > 50 µM | EC50 (THRβ): 1.52 µM

COc1cc(-n2nc(C#N)c(=O)[nH]c2=O)ccc1Oc1cc(CC2CCCC2)c(=O)[nH]n1 [Compound 12]
EC50 (THRα): 8.68 µM | IC50 (L929 mouse fibroblasts): > 50 µM | EC50 (THRβ): 0.723 µM

COc1cc(-n2nc(C#N)c(=O)[nH]c2=O)ccc1Oc1cc(C(C)(C)C)c(=O)[nH]n1 [Compound 5]
EC50 (THRα): 0.883 µM | IC50 (L929 mouse fibroblasts): > 50 µM | EC50 (THRβ): 4.9 µM

CC(C)(C)Cc1cc(Oc2c(Cl)cc(-n3nc(C#N)c(=O)[nH]c3=O)cc2Cl)n[nH]c1=O [Compound 18]
EC50 (THRα): 2.11 µM | IC50 (L929 mouse fibroblasts): > 50 µM | EC50 (THRβ): 0.0311 µM
